The source of these data is article PMC4986690 (Analytical chemistry, 2015).

For assay [1], the target named is human serum albumin (HSA) (Homo sapiens, UniProt P02768). As to the kind of experiment: ultrafast affinity extraction, two-dimensional HSA microcolumns, UV […] nm. The format is binding.
Assay [2] addresses T1, sex hormone binding globulin (SHBG) (Homo sapiens, UniProt P04278).
T1 sequence (P04278 30-402): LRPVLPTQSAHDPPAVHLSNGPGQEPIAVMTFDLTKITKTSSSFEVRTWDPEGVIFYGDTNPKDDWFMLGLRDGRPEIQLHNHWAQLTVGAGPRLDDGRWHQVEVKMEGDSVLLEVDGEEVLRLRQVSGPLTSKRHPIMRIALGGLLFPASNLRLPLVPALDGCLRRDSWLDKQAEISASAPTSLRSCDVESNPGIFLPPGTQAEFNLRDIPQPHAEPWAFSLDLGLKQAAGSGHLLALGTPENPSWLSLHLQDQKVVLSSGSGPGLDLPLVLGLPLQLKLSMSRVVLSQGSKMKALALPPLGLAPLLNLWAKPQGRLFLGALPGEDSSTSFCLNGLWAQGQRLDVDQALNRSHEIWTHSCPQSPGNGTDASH

Chain of human serum albumin (HSA) (P02768 25-609): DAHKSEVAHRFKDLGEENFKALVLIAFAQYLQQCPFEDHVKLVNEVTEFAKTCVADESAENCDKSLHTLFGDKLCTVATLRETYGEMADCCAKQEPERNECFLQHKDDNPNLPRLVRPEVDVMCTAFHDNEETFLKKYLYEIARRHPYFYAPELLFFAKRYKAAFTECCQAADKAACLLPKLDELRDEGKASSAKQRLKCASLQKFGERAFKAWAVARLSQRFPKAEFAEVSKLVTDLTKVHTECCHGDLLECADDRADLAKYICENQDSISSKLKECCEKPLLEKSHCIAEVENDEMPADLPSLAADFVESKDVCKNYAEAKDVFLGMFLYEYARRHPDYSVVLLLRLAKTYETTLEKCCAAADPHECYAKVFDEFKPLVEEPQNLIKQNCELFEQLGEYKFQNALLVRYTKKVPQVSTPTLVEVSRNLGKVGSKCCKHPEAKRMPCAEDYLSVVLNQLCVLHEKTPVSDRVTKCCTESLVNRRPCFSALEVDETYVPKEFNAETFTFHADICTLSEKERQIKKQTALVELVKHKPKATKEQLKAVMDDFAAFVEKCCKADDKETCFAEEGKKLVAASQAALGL

A word on the Kd: it is the constant that tells how readily two partners part at equilibrium. A higher Kd goes with a looser complex. For the compound `C[C@]12CC[C@H]3[C@@H](CCC4=CC(=O)CC[C@@]43C)[C@@H]1CC[C@@H]2O` [testosterone], the equilibrium dissociation constant (Kd) in assay [1] is 31.2 µM; in assay [2] it was 0.000909 µM.
